Reference: patent US12241902B2, “Probes for detection of copper” (The Regents of the University of California, priority 2019, dated 2025)
Values joined by “and” are separate entries in the source; they are usually repeats but may differ in a detail not shown here. Equal values may be shown once.

Tests used:
[1] = UV-vis absorption and emission measurements in aqueous buffer; type: physicochemical
Experimental: UV-vis absorption and emission measurements. FCP-1 stock solution in DMSO (5 mM) was prepared, aliquoted and stored at […]. For each spectroscopic measurement, a fresh aliquot was diluted to 500 μM by DMSO and further diluted with PBS containing 2 mM GSH/PEG-400 mixture (3:2, v/v) to prepare the sensing solution with 5 μM of FCP-1. The sensing solution was pre-incubated in a water bath at 37° C., and then [Cu(CH3CN)](PF6) in MeCN or other metal ions in H2O was added. The solution mixture was kept at 37° C. and taken out for UV-vis absorption or emission spectroscopic measurements in quartz cuvette at predetermined time intervals. Emission spectra were corrected using coumarin 153 as secondary emission standard (4). Photoluminescence quantum yield (PLQY) was determined using fluorescein in 0.1 M NaOH solution (0.95; λex=496 nm). FRET efficiency from the fluorescein moiety to rhodamine moiety of FCP-1 was estimated by [1−(PLQY of FCP-1/PLQY of FL-TPA)].
FCP-1 in PBS buffer containing glutathione (2 mM) and PEG-400 (40%, v/v) was evaluated. […] The first two absorption maxima corresponded to the absorption of the fluorescein moiety, as similar absorption maxima at 460 and 489 nm were found in the absorption spectra of FL-TPA (FIG. 4), whereas the lowest energy absorption at 552 nm originated from the rhodamine moiety (FIG. 4). […] Together with the significant contribution of the lower-energy fluorescence from the excitation at 450-500 nm, which is in the region of FL-TPA absorption (FIG. 6), the data support the occurrence of FRET from the fluorescein donor to the rhodamine acceptor. Using FL-TPA as a reference FRET donor compound (FIG. 7) with assumption that quenching of donor fluorescence originated only from the FRET process, the FRET efficiency in the FCP-1 cassette is estimated to be 84%.

[2] = test system: labile Cu(I) pools in HEK 293T cells; test: Ratiometric confocal fluorescence imaging of labile Cu(I) in HEK 293T cells; type: cell-based, Human; conditions: CuCl2 25 μM, FL-TPA 5 μM, λex 488 nm (FIG. 15)
Experimental: (A) Confocal fluorescence microscopy images of HEK 293T cells pretreated with solvent vehicle control or varying concentrations of CuCl2 in complete medium for 18 h. The cells were then washed with PBS, incubated with FCP-1 (5 μM) in DPBS for 45 min and then imaged. (B) Average cellular ratiometric emission ratios, represented by Fgreen/Forange, as determined from imaging experiments in (A) performed in triplicate. (C) Confocal fluorescence microscopy images of HEK 293T cells pretreated with solvent vehicle control or BCS (100 μM) in complete medium for 18 h. The cells were then washed with PBS, incubated with FCP-1 (5 μM) in DPBS for 45 min and then imaged. (D) Average cellular ratiometric emission ratios of FCP-1, Fgreen/Forange, as determined from experiments in (C) performed in triplicate. […] (E) ICP-MS measurement to determine total cellular ^63Cu levels in HEK293T cells under copper supplementation and depletion relative to the control (with normalization of different cell numbers by total cellular ^31P level). Error bars denote standard derivation (SD; n=3). *p<0.05, **p<0.01, ***p<0.001, ****p<0.0001 and *****p<0.00001.
Cell culture. Following cell cultures were grown: Human embryonic kidney (HEK 293T) cells were maintained in Dulbecco's Modified Eagle Medium (DMEM) supplemented with 10 vol % fetal bovine serum (FBS), 1 vol % GlutaMax (Gibco) and 1 vol % non-essential amino acids (NEAA, Gibco). Ctrl1^+/+ and Ctr1^−/− MEF cells were maintained in DMEM with 10 vol % FBS, 1 vol % non-essential amino acids, 1 vol % sodium pyruvate and 0.1 vol % 2-mercaptoethanol or DMEM supplemented with 10 vol % FBS and 1× Penicillin-Streptomycin. Human cervical epithelial carcinoma (HeLa) was maintained in DMEM medium supplemented with 1 vol % GlutaMAX and 10 vol % FBS. […]
Confocal fluorescence microscopy imaging. For confocal fluorescence imaging experiments of HEK293T, MEF Ctr1^+/+ and Ctr1^−/− and HeLa cells, the cells were plated on 8-well Lab Tek borosilicate chambered coverglass slides (Nunc), and allowed to grow to ca. 60% confluency before performing the cell imaging experiments. […] For quantification, a threshold value was set as background and the average intensity of the whole image was measured by ImageJ. […]
Given the metal and oxidation state-selective and sensitive response of FCP-1 to Cu(I), this probe was examined for ratiometric fluorescence imaging of labile Cu(I) pools in living cells. […] The observed increases and decreases in labile Cu(I) levels upon copper supplementation (CuCl2) and copper depletion (BCS) treatments, respectively, as measured by FCP-1 imaging were supported by complementary ICP-MS measurements of total copper levels showing expected increases and decreases in the total copper pool (FIG. 9, panel C).

[3] = test system: labile Cu(I) in Ctr1^+/+ MEFs; test: Confocal fluorescence imaging of labile Cu(I) in Ctr1+/+ MEFs; type: cell-based, mouse; conditions: FL-TPA 5 μM, 45 min, λex 488 nm
Experimental: (A) Confocal fluorescence microscopy images of Ctr1^+/+ MEFs and Ctr1^−/− MEFs treated with solvent control, CuCl2 (100 or 300 μM) or BCS (500 μM) in complete medium for 8 h, washed with complete medium and PBS, incubated with FCP-1 (5 μM) in DPBS for 45 min, and then imaged with λex=458 nm. (B) Average cellular ratiometric emission ratios of FCP-1, Fgreen/Forange, as determined from experiments performed in triplicate. (C) Total cellular ^63Cu levels were determined by ICP-MS experiments (with normalization of different cell numbers by total cellular ^31P level). (D) Confocal fluorescence microscopy images of Ctr1^+/+ MEFs and Ctr1^−/− MEFs incubated with FL-TPA (5 μM) in DPBS for 45 min. The cells were then imaged with λex=488 nm. (E) Average cellular fluorescence intensity of FL-TPA, FFL-TPA, determined from experiments performed in triplicate with λex=488 nm. Error bars denote SD (n=3). *p<0.05, **p<0.01 and ***p<0.001.
Cell culture. Following cell cultures were grown: Human embryonic kidney (HEK 293T) cells were maintained in Dulbecco's Modified Eagle Medium (DMEM) supplemented with 10 vol % fetal bovine serum (FBS), 1 vol % GlutaMax (Gibco) and 1 vol % non-essential amino acids (NEAA, Gibco). Ctrl1^+/+ and Ctr1^−/− MEF cells were maintained in DMEM with 10 vol % FBS, 1 vol % non-essential amino acids, 1 vol % sodium pyruvate and 0.1 vol % 2-mercaptoethanol or DMEM supplemented with 10 vol % FBS and 1× Penicillin-Streptomycin. Human cervical epithelial carcinoma (HeLa) was maintained in DMEM medium supplemented with 1 vol % GlutaMAX and 10 vol % FBS. All cells were incubated in 5% CO2 humidified air and subcultured at 80% confluence.
Confocal fluorescence microscopy imaging. For confocal fluorescence imaging experiments of HEK293T, MEF Ctr1^+/+ and Ctr1^−/− and HeLa cells, the cells were plated on 8-well Lab Tek borosilicate chambered coverglass slides (Nunc), and allowed to grow to ca. 60% confluency before performing the cell imaging experiments. The confocal imaging was performed with a Zeiss laser scanning microscope 710 with 20× or 63× oil-immersion objective lens using Zen 2009 software (Carl Zeiss). FCP-1 was excited with 458 nm with an Ar laser, and the emissions were collected using a META detector between 465 and 541 nm (Fgreen), and between 559 and 710 nm (Forange). DRAQ-5 was excited with a 633 nm He Ne laser, and its emission was collected using a META detector between 661 and 759 nm. Image analysis was performed using ImageJ, with ratiometric images generated by the Ratio Plus plugin of ImageJ. For quantification, a threshold value was set as background and the average intensity of the whole image was measured by ImageJ. All experiments were performed in triplicate, and statistical analyses were performed with a two-tailed Student's t-test (MS excel).
Having established that FCP-1 is sensitive to endogenous pools of labile Cu(I) under basal conditions and can respond to changes in labile Cu(I) pools upon pharmacological copper supplementation and/or depletion, the application of FCP-1 to visualize alterations in endogenous labile Cu(I) pools through genetic manipulation was explored. To this end, comparative FCP-1 imaging was performed in mouse embryonic fibroblast cells that are either Cu-replete (Ctr1^+/+ MEFs) or Cu-deficient (Ctr1^−/− MEFs) through knockout of the high-affinity copper transporter CTR1 (64-66).
Complementary ICP-MS measurements confirm that total copper levels in Ctr1^−/− MEFs are lower than Ctr1^+/+ MEFs (FIG. 12C). […]

absorption at 458 nm ([1]; 5 μM in PBS, 2 mM GSH, 40 vol % PEG-400) | absorption maxima ([1]; PBS buffer containing glutathione (2 mM) and PEG-400 (40%, v/v)) | Compound | detection of changes in labile copper with exogenous copper addition [2] | ability to distinguish basal labile Cu(I) levels in Ctr1+/+ and Ctr1−/− MEFs [3]
weak absorption |  | N-[9-(2-carboxyphenyl)-6-(1-piperazinyl)-3H-xanthen-3-ylidene]-N-ethyl-ethanaminium [Pz-rhodamine, reference compound] |  | 
 | 460 nm and 489 nm | COC(=O)c1ccccc1-c1c2ccc(=O)cc-2oc2cc(OCc3cccc(CN(Cc4ccccn4)Cc4ccccn4)n3)ccc12 [FL-TPA] | able to detect changes in labile copper | unable to distinguish differences
